Eight molecules from US9745335B2 (Blirt S.A., priority 2012, dated 2017) can be followed below.

Read-outs that look alike come from different tables or passages of the source.

Holding throughout (type): cell-based
The test system of data set [1] is Candida albicans ATCC 10231. Nature of the data set: antifungal activity in vitro, serial dilution in RPMI 1640. On the procedure: (§1) For the determination of antifungal activity in vitro we used method of serial dilution in buffered medium RPMI 1640, pH 7.0, in a 96-wells microplates, according to the standard procedure (National Committee for Clinical Laboratory Standards. Reference method for broth dilution antifungal susceptibility testing of yeast, approved standard, 2nd ed. M27-A2 vol. 22 Wayne, Pa., 2002). The optical density of cells suspension was measured using a microplates reader (Victor^3, Perkin-Elmer) at the wavelength λ=531 nm (A531). On the basis of obtained results the diagrams of relation between A531 values and concentration of examined compound were made.

Data set [2] concerns Candida glabrata DSM 11226. The description is as above. On the procedure: as §1
In a further data set the test system is Candida krusei DSM 6128. The data set is described as above. The protocol: as §1
Data set [3] concerns Candida lusitaniae DSM 70102. The data set is described as above. On the procedure:
as §1

For data set [4], the system named is Candida tropicalis KKP 334. The data set is described as above. On the procedure: as §1
The test system of data set [5] is Saccharomyces cerevisiae ATCC 9763. The description is as above. Conditions: RPMI 1640, pH 7.0; for Antifungal activity IC50: Saccharomyces cerevisiae ATCC 9763 (first head over MIC and IC50); for Antifungal activity MIC: Saccharomyces cerevisiae ATCC 9763. The protocol: as §1
In another data set the test system is Human erythrocytes. Nature of the data set: hemotoxicity determination (hemolytic activity). On the procedure:
The hemotoxicity determination was carried out by the serial dilutions method, according to the procedure described earlier (Slisz, M., et al., E., J Antibiot 57: 669-678 (2004). Human erythrocytes were suspended in the solution of saline to obtain a cell density of suspension 2×10^7/ml. Suitable amounts of diluted solutions of compounds were added to the cell suspension in tubes and were incubated at 37° C. for 30 minutes and then centrifuged (1700×g, 10 min, 4° C.). The concentration of hemoglobin in supernatant after centrifugation of erythrocytes suspension were determined by measuring the absorbance at wavelength λ=540 nm (A540). The maximum level of hemolysis was obtained after incubation of cells suspension in the presence of 0.1% Tritone X-100 (control sample). […] From these graphs, the EH50 values were read which are the interpolated concentrations of compound, for which the A540 value is exactly 50% of the A540 value measured for the control sample.

Setting [6] is: human erythrocytes, 37° C., 30 minutes.

`C[C@@H]1[C@H](O)[C@@H](C)/C=C/C=C/C=C/C=C/C=C/C=C/C=C/[C@H](O[C@@H]2O[C@H](C)[C@@H](O)[C@H](NC(=S)Nc3ccccc3)[C@@H]2O)C[C@@H]2O[C@](O)(C[C@@H](O)C[C@@H](O)[C@H](O)CC[C@@H](O)C[C@@H](O)CC(=O)O[C@H]1C)C[C@H](O)[C@H]2C(=O)O` [Compound A23, N-[(3-phenyl)-thioureidyl]amphotericin B]: the “Antifungal activity MIC” value was determined as 4 µg/mL in data set [1]; 8 µg/mL in data set [2]; 8 µg/mL in the data set with Candida krusei DSM 6128; 4 µg/mL in data set [3]; 4 µg/mL in data set [4]; 4 µg/mL in data set [5]. The “Antifungal activity IC50” value in data set [5] amounted to 2.54 µg/mL. In addition, the “Hemotoxi EH50” value in the data set with Human erythrocytes was above 100 µg/mL.
With `C[C@@H]1[C@H](O)[C@@H](C)/C=C/C=C/C=C/C=C/C=C/C=C/C=C/[C@H](O[C@@H]2O[C@H](C)[C@@H](O)[C@H](NC(=S)Nc3cccnc3)[C@@H]2O)C[C@@H]2O[C@](O)(C[C@@H](O)C[C@@H](O)[C@H](O)CC[C@@H](O)C[C@@H](O)CC(=O)O[C@H]1C)C[C@H](O)[C@H]2C(=O)O` [Compound A26, N-[3-(pyridin-3-yl)thioureidyl]amphotericin B], the “Antifungal activity MIC” value in data set [1] worked out at 4 µg/mL; in data set [2] it was 8 µg/mL; in the data set on Candida krusei DSM 6128 it was 8 µg/mL; in data set [3] it was 4 µg/mL; in data set [4] it was 4 µg/mL; in data set [5] it was 4 µg/mL. In addition, the “Antifungal activity IC50” value in data set [5] was 2.55 µg/mL. Also, the “Hemotoxi EH50” value with Human erythrocytes is above 100 µg/mL.
`C[C@@H]1[C@H](O)[C@@H](C)/C=C/C=C/C=C/C=C/C=C/C=C/C=C/[C@H](O[C@@H]2O[C@H](C)[C@@H](O)[C@H](NC(=S)NCc3ccncc3)[C@@H]2O)C[C@@H]2O[C@](O)(C[C@@H](O)C[C@@H](O)[C@H](O)CC[C@@H](O)C[C@@H](O)CC(=O)O[C@H]1C)C[C@H](O)[C@H]2C(=O)O` [Compound A29, N-{[3-(pyridin-4-yl)methyl]thioureidyl}amphotericin B]: the “Antifungal activity MIC” value in data set [1] stood at 4 µg/mL; in data set [2], 8 µg/mL; with Candida krusei DSM 6128, 8 µg/mL; in data set [3], 4 µg/mL; in data set [4], 4 µg/mL; in data set [5], 4 µg/mL. In data set [5], the “Antifungal activity IC50” value worked out at 2.56 µg/mL. For the same molecule, the “Hemotoxi EH50” value with Human erythrocytes was above 100 µg/mL.
As to `C[C@@H]1[C@H](O)[C@@H](C)/C=C/C=C/C=C/C=C/C=C/C=C/C=C/[C@H](O[C@@H]2O[C@H](C)[C@@H](O)[C@H](NC(=O)[C@@H](N)Cc3ccc(I)cc3)[C@@H]2O)C[C@@H]2O[C@](O)(C[C@@H](O)C[C@@H](O)[C@H](O)CC[C@@H](O)C[C@@H](O)CC(=O)O[C@H]1C)C[C@H](O)[C@H]2C(=O)O` [Compound A31, N-L-p-iodophenylalanylamphotericin B], the “Antifungal activity MIC” value was found to be 4 µg/mL in data set [1]; 8 µg/mL in data set [2]; 8 µg/mL in the data set with Candida krusei DSM 6128; 4 µg/mL in data set [3]; 4 µg/mL in data set [4]; 4 µg/mL in data set [5]. Further, the “Antifungal activity IC50” value in data set [5] was determined as 2.52 µg/mL. The “Hemotoxi EH50” value with Human erythrocytes (setting [6]) was above 100 µg/mL.
As for `C[C@@H]1[C@H](O)[C@@H](C)/C=C/C=C/C=C/C=C/C=C/C=C/C=C/[C@H](O[C@@H]2O[C@H](C)[C@@H](O)[C@H](NC(=O)[C@@H](N)CSC(C)(C)C)[C@@H]2O)C[C@@H]2O[C@](O)(C[C@@H](O)C[C@@H](O)[C@H](O)CC[C@@H](O)C[C@@H](O)CC(=O)O[C@H]1C)C[C@H](O)[C@H]2C(=O)O` [Compound A37, N-L-(S-tert-butyl)cystylamphotericin B], the “Antifungal activity MIC” value worked out at 2 µg/mL in data set [1]; 4 µg/mL in data set [2]; 4 µg/mL in the data set on Candida krusei DSM 6128; 1 µg/mL in data set [3]; 2 µg/mL in data set [4]; 2 µg/mL in data set [5]. Moreover, the “Antifungal activity IC50” value in data set [5] was 1.28 µg/mL. The “Hemotoxi EH50” value in the data set on Human erythrocytes is above 100 µg/mL.
For `C[C@@H]1[C@H](O)[C@@H](C)/C=C/C=C/C=C/C=C/C=C/C=C/C=C/[C@H](O[C@@H]2O[C@H](C)[C@@H](O)[C@H](NC(=O)C(N)Cc3ccccc3F)[C@@H]2O)C[C@@H]2O[C@](O)(C[C@@H](O)C[C@@H](O)[C@H](O)CC[C@@H](O)C[C@@H](O)CC(=O)O[C@H]1C)C[C@H](O)[C@H]2C(=O)O` (stereo partly shown) [Compound A38, N-o-fluorophenylalanylamphotericin B], the “Antifungal activity MIC” value in data set [1] amounted to 2 µg/mL; in data set [2] it was 4 µg/mL; in the data set with Candida krusei DSM 6128, 4 µg/mL; in data set [3], 2 µg/mL; in data set [4], 4 µg/mL; in data set [5], 4 µg/mL. Also, the “Antifungal activity IC50” value in data set [5] stood at 1.92 µg/mL. Besides, in the data set with Human erythrocytes (setting [6]), the “Hemotoxi EH50” value is above 100 µg/mL.
Take `C[C@@H]1[C@H](O)[C@@H](C)/C=C/C=C/C=C/C=C/C=C/C=C/C=C/[C@H](O[C@@H]2O[C@H](C)[C@@H](O)[C@H](NC(=O)[C@H](N)COC(C)(C)C)[C@@H]2O)C[C@@H]2O[C@](O)(C[C@@H](O)C[C@@H](O)[C@H](O)CC[C@@H](O)C[C@@H](O)CC(=O)O[C@H]1C)C[C@H](O)[C@H]2C(=O)O` [Compound A40, N-D-(O-tert-butyl)serylamphotericin B]: the “Antifungal activity MIC” value in data set [1] worked out at 2 µg/mL; in data set [2] it was 4 µg/mL; in the data set with Candida krusei DSM 6128 it was 4 µg/mL; in data set [3] it was 2 µg/mL; in data set [4], 4 µg/mL; in data set [5], 2 µg/mL. For the same molecule, in data set [5], the “Antifungal activity IC50” value stood at 1.35 µg/mL. In addition, in the data set with Human erythrocytes (setting [6]), the “Hemotoxi EH50” value is above 200 µg/mL.
In the case of “N-D-β-naphtylalanylamphotericin B [Compound A32]”, the “Antifungal activity MIC” value came to 8 µg/mL in data set [1]; 8 µg/mL in data set [2]; 8 µg/mL with Candida krusei DSM 6128; 4 µg/mL in data set [3]; 8 µg/mL in data set [4]; 4 µg/mL in data set [5]. In data set [5], the “Antifungal activity IC50” value came to 3.01 µg/mL. Moreover, in the data set on Human erythrocytes, the “Hemotoxi EH50” value was above 100 µg/mL.
